Laboratory results taken from patent publication US9795585B2, “Methods of using L-butylphthalide for the prevention and treatment of cerebral ischemia disease” (priority 2004, dated 2017).

Assays:
[1] = test system: ischemic brain of decapitated mice; assay: Ischemic cerebral metabolism of energy induced by decapitation of mice; assay type: in vivo, KunMing mice; settings: NBP 50 and 100 mg/kg oral, sodium Phenobarbital 225 mg/kg ip.; decapitated 30 minutes after administration; 15 seconds ischemia; vs control group
Method: Experimental Animals: KunMing mice.
Test drug: injectable L-butylphthalide was formulated into an emulsion with Tween-80.
Experimental Methods: KunMing mice of 10 to 22 g were divided into 8 groups with 10 mice per group. dl-, d-, and l-NBP (50 and 100 mg/kg/d), sodium Phenobarbital (225 mg/kg ip.) and the vehicle were orally administered. Thirty minutes after administration, the mice were decapitated.
The time between the decapitation and homogenation, which was 15 seconds, was regarded as cerebral ischemic time. Centrifugation and isolation were conducted by the method of Folbergrova, and the contents of lactic acid, ATP and PCr were determined by enzymological method.

[2] = test system: focal cerebral ischemia in rats; assay: Memory disorder induced by focal cerebral ischemia (shuttle box, artery ligation by method of Tamura); assay type: in vivo, male Wistar rats; settings: 15 and 30 mg/kg oral 15 min after operation; observed after 24 hours; vs vehicle control
Method: Experimental Animal: The same as Example 1. Experimental Equipment: Shuttle box. Experimental Methods: • 1. Rats were trained to acquire learning and memory; • 2. Artery ligation: Artery ligation was conducted on rats according to the method of Tamura. After 24 hours, the experiment of learning as in step (1) was repeatedly conducted on rats. • 3. Grouping and administration: the rats were divided into 9 groups, which were normal group, pseudo-operation group, ischemia control group, and groups of dl-, d-, and l-NBP (15 and 30 mg/kg). The rats were orally administered at 15 min after the operation, and the changes of latency of active and passive avoidance response were observed after 24 hours.

## CCCCC1OC(=O)c2ccccc21 (racemic) [dl-NBP, butylphthalide]
[1]
  content of ATP in the brain: no such significant effect
  content of PCr in the brain: no such significant effect
  content of lactic acid in the brain: no such significant effect
[2]
  times of active avoidance: not observed

## CCCC[C@@H]1OC(=O)c2ccccc21 [l-NBP, L-butylphthalide]
[1]
  content of ATP in the brain: increased
  content of PCr in the brain: increased
  content of lactic acid in the brain: significantly decreased
[2]
  times of active avoidance: significantly increased
